Assay [1] addresses T1, Adenosine receptor A2a (Cavia porcellus, UniProt P46616). Kind of assay: biochemical.
Description: (§1) Antagonist binding of N6-cyclohexyl-[3H]-adenosine to guinea pig brain
Assay [2] deals with T2, Adenosine receptor A1 (Homo sapiens) (UniProt P30542).
T2 sequence (whole entry): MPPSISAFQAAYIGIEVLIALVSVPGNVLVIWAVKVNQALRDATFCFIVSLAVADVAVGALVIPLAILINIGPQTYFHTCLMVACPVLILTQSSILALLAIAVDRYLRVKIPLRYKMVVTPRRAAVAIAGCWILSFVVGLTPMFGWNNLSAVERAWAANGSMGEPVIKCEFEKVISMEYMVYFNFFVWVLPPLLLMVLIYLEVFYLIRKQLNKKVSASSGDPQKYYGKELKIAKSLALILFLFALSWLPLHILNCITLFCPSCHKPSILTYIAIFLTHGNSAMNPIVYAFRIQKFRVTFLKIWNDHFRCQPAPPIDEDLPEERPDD
To be noted: brain.

The target in assay [3] is T3, Adenosine A2 receptor (Homo sapiens) (UniProt P29275+P29274). To be noted: brain.
Assay [4] concerns the target T4, Adenosine receptor (Homo sapiens) (UniProt P30542+P29275+P0DMS8+P29274).
In the next assay the target is T5, Adenosine receptor A1 (Bos taurus, UniProt P28190).
T5 sequence (P28190 whole entry): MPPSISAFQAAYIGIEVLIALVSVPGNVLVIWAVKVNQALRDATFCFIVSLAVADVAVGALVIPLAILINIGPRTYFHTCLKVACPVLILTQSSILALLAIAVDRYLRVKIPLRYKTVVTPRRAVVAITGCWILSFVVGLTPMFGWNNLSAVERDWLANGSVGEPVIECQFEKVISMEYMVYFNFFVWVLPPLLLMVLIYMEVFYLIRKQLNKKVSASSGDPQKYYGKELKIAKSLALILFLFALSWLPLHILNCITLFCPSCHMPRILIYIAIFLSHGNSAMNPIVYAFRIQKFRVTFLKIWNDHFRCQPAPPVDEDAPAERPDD

Assay [5] concerns the target T1, Adenosine receptor A2a. As to the kind of experiment: biochemical. The source holds these as a separate data set.
Description: as §1
Assay [6] addresses T4, Adenosine receptor (Homo sapiens). The source holds these as a separate data set.
Assay [7] has as its target T3, Adenosine A2 receptor (Homo sapiens). The following applies: brain. This is another data set of the same source.
Assay [8] deals with T2, Adenosine receptor A1 (Homo sapiens). As to the kind of experiment: Affinity constant for inhibition of A1 receptor control of adenylate cyclase in adipocytes, heart and brain cells; Inactive. It is filed as functional, cell-based.
For assay [9], the target named is T3, Adenosine A2 receptor (Homo sapiens). As to the kind of experiment: Affinity constant for A2 receptor control of adenylate cyclase in adipocytes, heart and brain cells; Inactive. It is filed as functional, cell-based.
The target in assay [10] is T6, Adenosine receptor (Rattus norvegicus, UniProt P29276+P25099+P30543+P28647). It is filed as functional.
In assay [11] the target is T6, Adenosine receptor. As to the kind of experiment: Antagonist binding of rN6-cyclohexyl-[3H]adenosine to rat brain. Type of assay: functional.
Assay [12] concerns the target T6, Adenosine receptor.
Description: Antagonist binding of L-N6-phenyl-isopropyl)-[3H]adenosine to rat fat

Calls of active or inactive are those of the source. The rule behind the calls is not given here.

T1 sequence (P46616 whole entry): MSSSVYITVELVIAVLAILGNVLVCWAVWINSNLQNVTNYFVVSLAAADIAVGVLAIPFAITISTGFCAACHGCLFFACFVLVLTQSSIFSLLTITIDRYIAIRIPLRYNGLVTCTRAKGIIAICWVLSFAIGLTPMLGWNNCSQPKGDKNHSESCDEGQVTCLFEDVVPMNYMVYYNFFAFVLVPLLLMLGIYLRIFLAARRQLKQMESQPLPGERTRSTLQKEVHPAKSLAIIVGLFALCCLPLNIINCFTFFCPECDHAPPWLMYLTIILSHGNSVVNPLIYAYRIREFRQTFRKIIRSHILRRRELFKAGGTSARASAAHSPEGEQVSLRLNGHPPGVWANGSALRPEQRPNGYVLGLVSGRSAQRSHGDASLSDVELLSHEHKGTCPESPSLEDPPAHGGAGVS
T4 sequence (P0DMS8 whole entry, looked up, one chain of several): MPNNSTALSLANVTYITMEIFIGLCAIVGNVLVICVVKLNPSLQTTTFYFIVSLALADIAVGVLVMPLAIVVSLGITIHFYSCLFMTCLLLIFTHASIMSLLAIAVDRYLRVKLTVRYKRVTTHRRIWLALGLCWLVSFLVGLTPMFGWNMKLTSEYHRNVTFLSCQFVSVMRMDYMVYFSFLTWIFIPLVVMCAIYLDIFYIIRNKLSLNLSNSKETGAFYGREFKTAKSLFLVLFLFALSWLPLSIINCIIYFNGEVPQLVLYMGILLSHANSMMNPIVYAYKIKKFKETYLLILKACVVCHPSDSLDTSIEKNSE
T4 sequence (P29274 whole entry, looked up, one chain of several): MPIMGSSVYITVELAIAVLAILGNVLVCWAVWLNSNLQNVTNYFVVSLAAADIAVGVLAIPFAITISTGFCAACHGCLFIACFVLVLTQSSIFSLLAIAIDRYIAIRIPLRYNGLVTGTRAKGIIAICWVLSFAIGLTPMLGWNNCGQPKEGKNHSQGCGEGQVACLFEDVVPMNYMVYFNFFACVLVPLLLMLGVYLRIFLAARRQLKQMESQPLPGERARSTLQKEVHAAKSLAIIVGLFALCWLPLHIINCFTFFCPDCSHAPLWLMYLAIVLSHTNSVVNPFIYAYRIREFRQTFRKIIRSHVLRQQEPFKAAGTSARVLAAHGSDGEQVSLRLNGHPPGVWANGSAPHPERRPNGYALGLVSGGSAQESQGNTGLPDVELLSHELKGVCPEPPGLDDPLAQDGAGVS
T4 sequence (P29275 whole entry, looked up, one chain of several): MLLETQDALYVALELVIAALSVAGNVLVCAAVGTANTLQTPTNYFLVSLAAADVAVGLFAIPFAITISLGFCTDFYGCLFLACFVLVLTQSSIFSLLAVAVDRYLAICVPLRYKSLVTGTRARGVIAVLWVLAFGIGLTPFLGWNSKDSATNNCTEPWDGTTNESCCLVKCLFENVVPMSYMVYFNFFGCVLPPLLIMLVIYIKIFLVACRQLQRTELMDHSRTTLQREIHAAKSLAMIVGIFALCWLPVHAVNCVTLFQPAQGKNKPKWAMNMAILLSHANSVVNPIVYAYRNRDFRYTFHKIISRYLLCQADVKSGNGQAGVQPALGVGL

For `Nc1ncnc2c1ncn2[C@@H]1O[C@H](C(=O)NC2CC2)[C@@H](O)[C@H]1O`, the affinity on Adenosine receptor A2a [1], expressed as Ki, was 0.008 µM.

Consider `OC[C@H]1O[C@@H](n2cnc3c(NCc4ccccc4)ncnc32)[C@H](O)[C@@H]1O`, for which the values for the Affinity constant in [2] and in [3] were 0.2 µM and 80 µM, respectively. For the same compound, in [4], the Affinity constant result is “inactive”.

Take `CC(C)Cn1c(=O)n(C)c(=O)c2[nH]cnc21` [ISOBUTYLMETHYLXANTHINE]: the Ki at Adenosine receptor A1 stood at 7 µM; at Adenosine receptor A2a [1], 8 µM.

In the case of `C[C@H](Cc1ccccc1)Nc1ncnc2c1ncn2[C@@H]1O[C@H](CO)[C@@H](O)[C@H]1O` [(R)-PIA], the values for the Ki at Adenosine receptor A1 and on Adenosine receptor A2a [5] were 0.00025 µM and 0.0033 µM, respectively. Besides, the results for the Affinity constant in assay [2] and in [3] were 0.003 µM and 30 µM, respectively. Further, the Affinity constant result in assay [4] is “inactive”.

For `C[C@@H](Cc1ccccc1)Nc1ncnc2c1ncn2[C@@H]1O[C@H](CO)[C@@H](O)[C@H]1O` [(S)-PIA], the Ki turned out to be 0.008 µM on Adenosine receptor A1 and 0.13 µM on Adenosine receptor A2a [1]. The Affinity constant in [2] worked out at 0.2 µM; in assay [3], 100 µM. The Affinity constant result in assay [4] was “inactive”.

The compound `OC[C@H]1O[C@@H](n2cnc3c(NC4CCCCC4)ncnc32)[C@H](O)[C@@H]1O` displayed a Ki on Adenosine receptor A1 of 0.0025 µM. In addition, the results for the Affinity constant in [2] and in [3] were 0.003 µM and 30 µM, respectively. Further, the Affinity constant result in assay [4] is “inactive”.

In turn, `CSC[C@H]1O[C@@H](n2cnc3c(N)ncnc32)[C@H](O)[C@@H]1O` displayed an Affinity constant in assay [3] of 10 µM.

At Adenosine receptor A1, `Cn1c(=O)c2c(ncn2C)n(C)c1=O` [CAFFEINE] had a Ki of 130 µM. For the same compound, the Affinity constant in [2] and in assay [3] was 30 µM each time. The Affinity constant result in [4] is “inactive”.

Regarding `Nc1nc(Cl)nc2c1ncn2[C@@H]1O[C@H](CO)[C@@H](O)[C@H]1O`, the results for the Ki at Adenosine receptor A1 and at Adenosine receptor A2a [1] were 0.025 µM and 0.008 µM, respectively. In addition, the Affinity constant in assay [2] is 0.01 µM; in assay [7], 5 µM. The Affinity constant entry in assay [6] is “inactive”.

For the compound `CNc1ncnc2c1ncn2[C@@H]1O[C@H](CO)[C@@H](O)[C@H]1O`, the results for the Affinity constant in assay [2] and in assay [3] were 0.1 µM and 80 µM, respectively.

For the compound `OC[C@H]1O[C@@H](n2cnc3c(Nc4ccccc4)ncnc32)[C@H](O)[C@@H]1O`, the Affinity constant was found to be 0.003 µM in [2] and 50 µM in [3]. The Affinity constant result in assay [4] is “inactive”.

On to `C[C@@H]1O[C@H](n2cnc3c(N)ncnc32)C[C@H]1O`, for which the Affinity constant result in assay [8] and in [9] was “inactive” throughout. This compound also gave an Affinity constant in assay [4] of 2 µM.

In assay [2], `CCNC(=O)[C@H]1O[C@@H](n2cnc3c(N)ncnc32)[C@H](O)[C@@H]1O` registered an Affinity constant of 0.1 µM.

As for `CC(C)Cn1c(=O)n(C)c(=O)c2nc[nH]c21` [ISOBUTYLMETHYLXANTHINE], the Ki was 0.8 µM on Adenosine receptor [10], 3 µM at Adenosine receptor [11] and 20 µM at Adenosine receptor [12]. Besides, the Affinity constant worked out at 2 µM in assay [2] and 5 µM in assay [3]. The Affinity constant entry in assay [4] was “inactive”.

Turning to `Cn1c(=O)c2[nH]c(-c3ccccc3)nc2n(C)c1=O` [8-PHENYL THEOPHYLLINE], the affinity at Adenosine receptor A2a [1] corresponds to a Ki of 0.4 µM.

(Values after ChEMBL document CHEMBL1122012, “Adenosine receptors: targets for future drugs” (J Med Chem, 1982).)
